Measured values from US20170087113A1, “METHODS FOR TREATING UREA CYCLE DISORDERS TO PREVENT HYPERAMMONEMIC CRISES BY CONTROLLING BLOOD AMMONIA LEVELS” (HORIZON THERAPEUTICS, LLC, priority 2014, published 2017).

What was measured:
[1] = system: UCD patients; experiment: Occurrence of hyperammonemic crises (HAC): 12 months pre-enrollment on NaPBA versus 12-month GPB treatment (studies HPN-100-005, -007, -012); type: in vivo, human; settings: for # of HA events (total no. of HAC): 12 months pre-study (NaPBA) or during study (GPB); for # of HACs / Subjects with 1 or more HACs: subjects ages 6 years or higher, total N=77, pre-study (NaPBA) or study (GPB)
Text: Data from four short-term switchover (SO) studies and three 12-month safety extension (SE) studies in adult and pediatric UCD patients were included in the analyses; all have been previously described. […] Most patients completing these protocols plus additional patients (a total of 100 of whom 49 were pediatric) were enrolled into safety extension studies and received GPB for 12 months (Diaz 2013), (Mokhatarani 2013), (Berry 2014).
All protocols and informed consents were reviewed and approved by the Investigational Review Board of each participating institution prior to initiation. […] In all studies, patients received GPB three times daily (or more frequently in small children to match their prior NaPBA schedule) at a daily dose equivalent to their previously prescribed NaPBA dose. […] Fasting ammonia and glutamine levels were analyzed as a predictor of HACs during long-term treatment.
(§1) During the 12 month studies, blood samples for ammonia and glutamine analyses were collected monthly and information on HACs was recorded. […] Ammonia and glutamine concentrations were measured by an accredited hospital laboratory at each study site and ammonia values were normalized to a standard range of 9 to 35 μmol/L.
Data for 100 UCD subjects from three clinical trials (HPN-100-005, HPN-100-007, and HPN-100-012) were analyzed to evaluate the correlation between fasting ammonia levels and HAC (Table 1). Patients were treated for 12 months with GPB during the study. There was an almost equal split in the number of subjects who were adults (51%) and children (49%), defined as age<18 years at the time of enrollment. In this population, 30 patients had experienced a total of 54 HACs in the 12 months prior to the study and 19 patients experienced a total of 27 HACs during the study (Table 1). Baseline ammonia was defined as the subject's fasting ammonia level taken either at month zero or at the screening visit depending on which study the subject was enrolled in and whether the subject was enrolled in previous studies.

[2] = system: blood ammonia; experiment: Total ammonia exposure (TNAUC of monthly ammonia) during 12-month GPB treatment; type: in vivo, human; design: TNAUC ammonia, mean: unit not given beside the values; settings: for TNAUC ammonia, mean: patients with HAC, N=19; for TNAUC ammonia, mean (SD): patients with no HAC, N=81
Procedure: as §1
The relationship between total ammonia exposure over time and the risk of HAC occurrence was explored by calculating time normalized area under the curve (TNAUC12months) for ammonia for patients with and without an HAC during the 12-month treatment with GPB (Table 13). The AUC for ammonia, measured monthly, was calculated for each patient using the trapezoid rule over the course of the 12 month study. To normalize the AUC, TNAUCxmonth, AUC was divided by the final study month of an ammonia assessment.

[3] = system: glutamine; experiment: Glutamine levels and exposure during 12-month GPB treatment; type: in vivo, human
Procedure: as §1
The relationship between glutamine levels and ammonia categories was also analyzed. […] Glutamine levels were analyzed over the 12 month study period in patients treated for 12 months with GPB. Monthly glutamine levels were generally higher in patients in the higher baseline ammonia ULN groups and, by three months of treatment, had decreased in the patients with the highest baseline glutamine at baseline (FIG. 14A).

[4] = system: UCD patients; experiment: Duration of HAC during the 12-month GPB studies; type: in vivo, human
Procedure: The relationship between ammonia exposure and duration of HAC was analyzed. Ammonia exposure was characterized three different ways: peak ammonia during crisis, total ammonia during crisis and ammonia at time of admission. The majority of the HACs typically lasted a day, and a steep drop off in the distribution was seen after 2 days. (Note: two subjects were excluded with 20 days of duration of HAC in this analyses).

[5] = system: venous ammonia; settings: study HPN-100-006 (Diaz 2013); cited from earlier work
[6] = all patients N=100, pre-study (NaPBA) or during study (GPB)
[7] = study 005, N=17, pre-study (NaPBA) or during study (GPB)
[8] = study 007, N=60, pre-study (NaPBA) or during study (GPB)
[9] = study 012, N=23, pre-study (NaPBA) or during study (GPB)

O=C(CCCc1ccccc1)OCC(COC(=O)CCCc1ccccc1)OC(=O)CCCc1ccccc1 [GPB, glycerol phenylbutyrate]
Lower HAC incidence rate during study (GPB) than pre-enrollment ([1]; 0.288 versus […]): roughly 50% | Proportion of patients who experienced an HAC ([1]; Group 1 study sites (33 patients, >50% with baseline ammonia <0.5 ULN)): 12% | Proportion of patients who experienced an HAC ([1]; Group 2 study sites (29 patients)): 21% | Proportion of patients who experienced an HAC ([1]; Group 3 study sites (38 patients)): 24% | # HAC ([1]; Month 0-3 of GPB treatment): 5 | % of Total HAC ([1]; Month 0-3 of GPB treatment): (18.5%) | HAC Incidence Rate/month ([1]; Month 0-3 of GPB treatment): 0.0170 | # HAC ([1]; Month 0-6 of GPB treatment): 13 | % of Total HAC ([1]; Month 0-6 of GPB treatment): (48.1%) | HAC Incidence Rate/month ([1]; Month 0-6 of GPB treatment): 0.0224 | # HAC ([1]; Month 0-9 of GPB treatment): 20 | % of Total HAC ([1]; Month 0-9 of GPB treatment): (74.1%) | HAC Incidence Rate/month ([1]; Month 0-9 of GPB treatment): 0.0234 | # HAC ([1]; Month 0-12 of GPB treatment): 27 | % of Total HAC ([1]; Month 0-12 of GPB treatment): (100%) | HAC Incidence Rate/month ([1]; Month 0-12 of GPB treatment): 0.0240 | Proportion of patients who experienced an HAC during the study ([1]; OTC deficiency (n=69)): 18.8% | 12-month incidence of HAC ([1]; adult (≧18 years)): 0.371 | Proportion of patients who experienced an HAC ([1]; adult (≧18 years)): 13.7% | Proportion of patients with no HAC ([1]; adult ≧18 years, during study): 86.3% | Subjects who had not experienced an HAC (Kaplan-Meier, HAC-free survival) ([1]; after about one year of follow-up during treatment with GPB): 80% | Proportion of patients who experienced an HAC ([1]; age 6-11 years, during study): 23.5% | Proportion of patients with no HAC ([1]; age 6-11 years, during study): 76.5% | Proportion of patients who experienced an HAC ([1]; age 12-17 years, during study): 11.1% | Proportion of patients with no HAC ([1]; age 12-17 years, during study): 88.9% | Proportion of patients who experienced an HAC ([1]; age <6 years, during study): 30.4% | Proportion of patients with no HAC ([1]; age <6 years, during study): 69.6% | # of HA events (total no. of HAC) ([1]; all patients N=100): 27 | N with ≧1 HA events (number of patients with HAC) [1, 6]: 19 | Proportion of patients who experienced an HAC [1, 6]: 19.0% | Proportion of patients with no HAC ([1]; all patients, during study): 81.0% | Proportion of patients with no HAC ([1]; baseline ammonia 0-<0.5 ULN, during study): 89.7% | Proportion of patients with no HAC ([1]; baseline ammonia 0.5-<1.0 ULN, during study): 85.3% | Proportion of patients with no HAC ([1]; baseline ammonia ≧1 ULN, during study): 63.0% | 12-month incidence of HAC ([1]; female): 0.314 | Proportion of patients who experienced an HAC ([1]; female): 16.4% | Proportion of patients with no HAC ([1]; female, during study): 83.6% | 12-month incidence of HAC ([1]; male): 0.275 | Proportion of patients who experienced an HAC ([1]; male): 24.2% | Proportion of patients with no HAC ([1]; male, during study): 75.8% | Proportion of patients who experienced an HAC during the study ([1]; non-OTC deficiencies): 19.4% | 12-month incidence of HAC ([1]; non-white): 0.248 | Proportion of patients who experienced an HAC ([1]; non-white): 21.1% | Proportion of patients with no HAC ([1]; non-white, during study): 78.9% | 12-month incidence of HAC ([1]; pediatric (<18 years)): 0.209 | Proportion of patients who experienced an HAC ([1]; pediatric (<18 years)): 24.5% | Proportion of patients with no HAC ([1]; pediatric <18 years, during study): 75.5% | # of HA events [1, 7]: 3 | N with ≧1 HA events [1, 7]: 3 | # of HA events [1, 8]: 12 | N with ≧1 HA events [1, 8]: 9 | # of HA events [1, 9]: 12 | N with ≧1 HA events [1, 9]: 7 | # of HACs [1]: 15 | Subjects with 1 or more HACs [1]: 12 | 12-month incidence of HAC ([1]; white): 0.296 | Proportion of patients who experienced an HAC ([1]; white): 18.5% | Proportion of patients with no HAC ([1]; white, during study): 81.5% | TNAUC ammonia, mean ([2]; Month 0-3): 33.3 | TNAUC ammonia, mean (SD) ([2]; Month 0-3): 23.5 (13.62) | TNAUC ammonia, mean ([2]; Month 0-6): 33.0 | TNAUC ammonia, mean (SD) ([2]; Month 0-6): 24.0 (13.85) | TNAUC ammonia, mean ([2]; Month 0-9): 33.4 | TNAUC ammonia, mean (SD) ([2]; Month 0-9): 23.7 (12.56) | TNAUC ammonia, mean ([2]; Month 0-12): 35.0 | TNAUC ammonia, mean (SD) ([2]; Month 0-12): 23.6 (11.94) | Change of glutamine levels during GPB treatment ([3]; patients with the highest baseline glutamine, by three months of treatment): decreased | Total glutamine exposure, TNAUC12month ([3]; subjects with an HAC during the study): 720.9 μmol/L*m | Total glutamine exposure, TNAUC12month ([3]; subjects without an HAC during the study): 699.4 μmol/L*m | Duration of HAC that lasted less than 2 days ([4]; overall): about 64% | Duration of HA crisis 1-1.99 days ([4]; study 005): 0.0% | Duration of HA crisis 2-2.99 days ([4]; study 005): 50.0% | Duration of HA crisis <1 days ([4]; study 005): 50.0% | Duration of HA crisis >3 days ([4]; study 005): 0.0% | Duration of HA crisis, median ([4]; study 005): 1.27 days | Duration of HA crisis, mean ([4]; study 005, N=2): 1.27 days | Duration of HA crisis 1-1.99 days ([4]; study 007): 16.7% | Duration of HA crisis 2-2.99 days ([4]; study 007): 33.3% | Duration of HA crisis <1 days ([4]; study 007): 41.7% | Duration of HA crisis >3 days ([4]; study 007): 8.3% | Duration of HA crisis, median ([4]; study 007): 1.36 days | Duration of HA crisis, mean ([4]; study 007, N=12): 1.95 days | Duration of HA crisis 1-1.99 days ([4]; study 012): 18.2% | Duration of HA crisis 2-2.99 days ([4]; study 012): 18.2% | Duration of HA crisis <1 days ([4]; study 012): 54.6% | Duration of HA crisis >3 days ([4]; study 012): 9.1% | Duration of HA crisis, median ([4]; study 012): 0.92 days | Duration of HA crisis, mean ([4]; study 012, N=11): 1.53 days | Duration of HA crisis 1-1.99 days ([4]; total, N=25): 16.0% | Duration of HA crisis 2-2.99 days ([4]; total, N=25): 28.0% | Duration of HA crisis >3 days ([4]; total, N=25): 8.0% | Duration of HA crisis, mean ([4]; total, N=25): 1.71 days | Duration of HA crisis, median ([4]; total, N=25): 1.00 days | Ammonia control of GPB versus NaPBA as assessed by venous ammonia [5]: non-inferiority

sodium phenylbutyrate [NaPBA]
12-month incidence of HAC ([1]; adult (≧18 years)): 0.832 | Proportion of patients who experienced an HAC ([1]; adult (≧18 years)): 17.7% | # of HA events (total no. of HAC) ([1]; all patients N=100): 54 | N with ≧1 HA events (number of patients with HAC) [1, 6]: 30 | Proportion of patients who experienced an HAC [1, 6]: 30.0% | 12-month incidence of HAC ([1]; female): 0.712 | Proportion of patients who experienced an HAC ([1]; female): 23.9% | 12-month incidence of HAC ([1]; male): 0.516 | Proportion of patients who experienced an HAC ([1]; male): 42.4% | 12-month incidence of HAC ([1]; non-white): 0.660 | Proportion of patients who experienced an HAC ([1]; non-white): 36.8% | 12-month incidence of HAC ([1]; pediatric (<18 years)): 0.338 | Proportion of patients who experienced an HAC ([1]; pediatric (<18 years)): 42.9% | # of HA events [1, 7]: 8 | N with ≧1 HA events [1, 7]: 5 | # of HA events [1, 8]: 17 | N with ≧1 HA events [1, 8]: 10 | # of HA events [1, 9]: 29 | N with ≧1 HA events [1, 9]: 15 | # of HACs [1]: 25 | Subjects with 1 or more HACs [1]: 15 | 12-month incidence of HAC ([1]; white): 0.564 | Proportion of patients who experienced an HAC ([1]; white): 28.4%
